One series relates to Ehrlich carcinoma. Description: Antineoplastic effect on Ehrlich carcinoma in mice (survival, T/C percent). The settings on record: in the abdomen once a day for 7 days; for response vs control in vivo at 2 mg/kg / response vs control in vivo at 4 mg/kg / response vs control in vivo at 8 mg/kg / response vs control in vivo at 16 mg/kg / response vs control in vivo at 32 mg/kg / response vs control in vivo at 1 mg/kg: Mus musculus, Ehrlich, ip, 720 h. The class given is in vivo, male ICR mouse. As for the experimental part:
Antineoplastic effect on Ehrlich carcinoma:
(§1) About 10^6/0.2 ml of Ehrlich carcinoma cells were placed in an abdomen of each male ICR mouse of 5 weeks old. On the next day the administration of the test sample in the abdomen was started. The test sample was given once a day for 7 days. For an untreated group, a physiological saline solution was given in the same manner as above. […] The T/C percent (T/C x 100) was determined from the average survival periods (days) of the treated group and control group. Further, 50 % lethal dose (LD50) was determined from the number of the mice which died of toxicity of the test samples administered.

Series [1] is described as follows: 50 % lethal dose from toxic deaths in the Ehrlich carcinoma experiment. The class given is in vivo, male ICR mouse. The conditions noted are these: mice bearing Ehrlich carcinoma, in the abdomen once a day for 7 days; for LD50: 43200 min; for LD50 at 720 h: mouse, in vivo, ip. As for the experimental part: as §1
Where [2] appears, read: dose 1.0 mg/kg, observation period 60 days.
Setting [3] is: dose 2.0 mg/kg, observation period 60 days.
Where [4] appears, read: dose 4.0 mg/kg, observation period 60 days.
Where [5] appears, read: dose 8.0 mg/kg, observation period 60 days.
The mark [6] stands for this setting: dose 4.0 mg/kg, observation period 30 days.
Setting [7] is: dose 8.0 mg/kg, observation period 30 days.
[8] abbreviates: dose 2.0 mg/kg, observation period 30 days.

For 2,3-butanediol selenite [Compound 16], the “Antineoplastic effect (T/C percent)” value was 185% in the series with Ehrlich carcinoma (setting [2]), 216% in the series on Ehrlich carcinoma (setting [3]), 261% in the series with Ehrlich carcinoma (setting [4]) and 174% with Ehrlich carcinoma (setting [5]).

Regarding “selenium oxybromide·dioxane complex [Compound 8]”, the “Antineoplastic effect (T/C percent)” value in the series on Ehrlich carcinoma (setting [3]) was found to be 182%; in the series with Ehrlich carcinoma (setting [4]), 226%; in the series on Ehrlich carcinoma (setting [5]), 228%. Also, the LD50 in series [1] is 8 - 16 mg/kg/day x7.

`CCO[Se](=O)OCC` [Compound 9, diethyl selenite] showed a response vs control in vivo at 2 mg/kg with Ehrlich carcinoma (setting [3]) of 246%. The compound also returned a response vs control in vivo at 4 mg/kg in the series with Ehrlich carcinoma (setting [4]) of 203%. For the same compound, the response vs control in vivo at 8 mg/kg in the series with Ehrlich carcinoma (setting [5]) is 201%. In the series on Ehrlich carcinoma (observation period 60 days), this compound had a response vs control in vivo at 16 mg/kg of 14%. The LD50 at 720 h in series [1] was in the range of 4 to 8 mg/kg.

In turn, `O=[Se](OCCCl)OCCCl` [Compound 12, di(2-chloroethyl) selenite] had a response vs control in vivo at 2 mg/kg in the series with Ehrlich carcinoma (setting [3]) of 197%. The response vs control in vivo at 4 mg/kg with Ehrlich carcinoma (setting [4]) is 225%. The compound further displayed a response vs control in vivo at 8 mg/kg with Ehrlich carcinoma (setting [5]) of 194%. Also, the response vs control in vivo at 16 mg/kg with Ehrlich carcinoma (observation period 60 days) amounted to 65%. This compound came in with an LD50 at 720 h in series [1] of 8 mg/kg.

Regarding `CCO[Se](=O)c1ccccc1` (centres unmarked) [Compound 2, ethyl phenylseleninate], the response vs control in vivo at 4 mg/kg in the series on Ehrlich carcinoma (setting [6]) and with Ehrlich carcinoma (setting [4]) was 118% each time. Moreover, the response vs control in vivo at 8 mg/kg in the series with Ehrlich carcinoma (setting [7]) and in the series on Ehrlich carcinoma (setting [5]) was 134% in each case. In addition, the response vs control in vivo at 32 mg/kg in the series with Ehrlich carcinoma (observation period 30 days) was determined as 87.9%; in the series with Ehrlich carcinoma (observation period 60 days) it was 88%. For the same compound, the results for the response vs control in vivo at 16 mg/kg in the series with Ehrlich carcinoma (observation period 30 days) and in the series with Ehrlich carcinoma (observation period 60 days) were 150% and 193%, respectively. In series [1], this compound came in with an LD50 at 720 h of 16 to 32 mg/kg.

As for “selenium oxychloride·isoquinoline complex [Compound 6]”, the “Antineoplastic effect (T/C percent)” value is listed as 158.5% in the series with Ehrlich carcinoma (setting [8]); 211% in the series with Ehrlich carcinoma (setting [3]); 164.8% in the series on Ehrlich carcinoma (setting [6]); 206% in the series with Ehrlich carcinoma (setting [4]); 162.9% with Ehrlich carcinoma (setting [7]); 187% with Ehrlich carcinoma (setting [5]).

As to `CCCO[Se](=O)OCCC` [Compound 10, di(n-propyl) selenite], the response vs control in vivo at 2 mg/kg in the series with Ehrlich carcinoma (setting [3]) was found to be 175%. This compound also registered a response vs control in vivo at 4 mg/kg in the series with Ehrlich carcinoma (setting [4]) of 170%. Moreover, in the series on Ehrlich carcinoma (setting [5]), the response vs control in vivo at 8 mg/kg was 102%. Further, in the series with Ehrlich carcinoma (observation period 60 days), the response vs control in vivo at 16 mg/kg amounted to 14%. Further, in series [1], the LD50 at 720 h was 8 mg/kg.

For the compound selenium tetrachloride [Compound 19], the “Antineoplastic effect (T/C percent)” value in the series with Ehrlich carcinoma (setting [2]) is given as 167%; in the series on Ehrlich carcinoma (setting [3]) it was 179%; in the series on Ehrlich carcinoma (setting [4]) it was 249%; with Ehrlich carcinoma (setting [5]), 183%. In series [1], this compound returned an LD50 of over 16 mg/kg/day x7.

“selenium oxychloride·dioxane complex [Compound 7]”: the “Antineoplastic effect (T/C percent)” value stood at 211% in the series with Ehrlich carcinoma (setting [3]), 225% with Ehrlich carcinoma (setting [4]) and 194% in the series on Ehrlich carcinoma (setting [5]). Besides, the LD50 in series [1] is 8 - 16 mg/kg/day x7.

For `CC1CO[Se](=O)O1` (centres unmarked) [Compound 15, 1,2-propanediol selenite], in the series with Ehrlich carcinoma (setting [2]), the response vs control in vivo at 1 mg/kg is 227%. In the series on Ehrlich carcinoma (setting [3]), this compound registered a response vs control in vivo at 2 mg/kg of 258%. The compound also displayed a response vs control in vivo at 4 mg/kg in the series with Ehrlich carcinoma (setting [4]) of 204%. Besides, in the series on Ehrlich carcinoma (setting [5]), the response vs control in vivo at 8 mg/kg came out at 105%. In series [1], this compound showed an LD50 at 720 h of 8 mg/kg.

As to `O=[Se]1OCCCO1` [Compound 17, 1,3-propanediol selenite], the response vs control in vivo at 1 mg/kg with Ehrlich carcinoma (setting [2]) came to 174%. Besides, the response vs control in vivo at 2 mg/kg with Ehrlich carcinoma (setting [3]) is 221%. Besides, the response vs control in vivo at 4 mg/kg with Ehrlich carcinoma (setting [4]) was 197%. Besides, in the series on Ehrlich carcinoma (setting [5]), the response vs control in vivo at 8 mg/kg was determined as 83%. The same compound showed an LD50 at 720 h in series [1] of 4 to 8 mg/kg.

In the case of “2,2-dimethyl-1,3-propanediol selenite [Compound 18]”, the “Antineoplastic effect (T/C percent)” value in the series with Ehrlich carcinoma (setting [2]) is listed as 164%; with Ehrlich carcinoma (setting [3]) it was 193%; in the series on Ehrlich carcinoma (setting [4]) it was 194%; in the series with Ehrlich carcinoma (setting [5]) it was 194%.

For the compound selenium tetrabromide [Compound 20], the “Antineoplastic effect (T/C percent)” value is given as 196% in the series with Ehrlich carcinoma (setting [3]), 272% in the series with Ehrlich carcinoma (setting [4]) and 183% in the series with Ehrlich carcinoma (setting [5]). The LD50 in series [1] is 8-16 mg/kg/day x7.

Compound `CC(Cl)CO[Se](=O)OCC(C)Cl` (centres unmarked) [Compound 13, di(2-chloropropyl) selenite] displayed a response vs control in vivo at 2 mg/kg in the series on Ehrlich carcinoma (setting [3]) of 190%. The response vs control in vivo at 4 mg/kg with Ehrlich carcinoma (setting [4]) came out at 234%. In addition, the response vs control in vivo at 8 mg/kg in the series with Ehrlich carcinoma (setting [5]) was 219%. The compound also showed a response vs control in vivo at 16 mg/kg in the series on Ehrlich carcinoma (observation period 60 days) of 71%. This compound also had an LD50 at 720 h in series [1] of 8 to 16 mg/kg.

Regarding “selenium tetrachloride·pyridine complex [Compound 21]”, the figures for the “Antineoplastic effect (T/C percent)” value in the series on Ehrlich carcinoma (setting [3]), in the series with Ehrlich carcinoma (setting [4]) and with Ehrlich carcinoma (setting [5]) were 155%, 217% and 246%, respectively. The LD50 in series [1] is 8-16 mg/kg/day x7.

With `O=[Se](O)c1ccccc1` [Compound 1, phenylseleninic acid], the response vs control in vivo at 2 mg/kg in the series with Ehrlich carcinoma (setting [8]) and in the series with Ehrlich carcinoma (setting [3]) was 123% in each case. Also, the response vs control in vivo at 4 mg/kg in the series with Ehrlich carcinoma (setting [6]) and in the series on Ehrlich carcinoma (setting [4]) was 129% each time. Further, the response vs control in vivo at 8 mg/kg with Ehrlich carcinoma (setting [7]) and in the series with Ehrlich carcinoma (setting [5]) was 141% throughout. Moreover, the response vs control in vivo at 16 mg/kg in the series with Ehrlich carcinoma (observation period 30 days) and in the series on Ehrlich carcinoma (observation period 60 days) was 149% throughout. Also, the LD50 at 720 h in series [1] is over 16 mg/kg.

As for “selenium oxychloride·quinoline complex [Compound 5]”, the “Antineoplastic effect (T/C percent)” value with Ehrlich carcinoma (setting [8]) was 131.4%; in the series with Ehrlich carcinoma (setting [3]), 131%; in the series with Ehrlich carcinoma (setting [6]), 156.0%; in the series on Ehrlich carcinoma (setting [4]) it was 199%; in the series with Ehrlich carcinoma (setting [7]) it was 181.8%; with Ehrlich carcinoma (setting [5]) it was 269%. The same compound had an LD50 in series [1] of over 16 mg/kg/day x7.

With `CC(C)O[Se](=O)OC(C)C` [Compound 11, diisopropyl selenite], the response vs control in vivo at 2 mg/kg in the series on Ehrlich carcinoma (setting [3]) worked out at 204%. For the same compound, the response vs control in vivo at 4 mg/kg in the series on Ehrlich carcinoma (setting [4]) is 236%. This compound gave a response vs control in vivo at 8 mg/kg in the series with Ehrlich carcinoma (setting [5]) of 126%. The same compound registered a response vs control in vivo at 16 mg/kg in the series on Ehrlich carcinoma (observation period 60 days) of 14%. The LD50 at 720 h in series [1] was in the range of 4 to 8 mg/kg.

Source of the values: patent EP0182317A2, “Antineoplastic agent” (priority 1984, dated 1986).
